Measured values published in patent publication US5326788A, “Biological fluid purification system” (priority 1992, dated 1994).
“And” between values parts separate entries of the source, which are not always exact repeats. Equal values may be shown once.

Assays:
[1] = Effect of hypericin on hematologic parameters and blood chemistries of mouse blood; set-up: Hematocrit: unit not given here; settings: for BUN / Hb / Hematocrit / WBC / albumin / alk. phos. / calcium / chloride / cholesterol / creatinine / globulins / glucose / iron / phosphorous / retics / sodium / total bilirubin / total protein / triglycerides / uric acid: mouse blood
Description: Analogous experiments to assess the effect of hypericin on routine clinical chemistries and hematologic parameters were determined in a commercial laboratory on mouse blood using higher concentrations of hypericin. Eight blood samples drawn in parallel were treated with hypericin ranging in concentration from 2.5 micrograms/ml to 200 micrograms/ml of whole blood.

HIV-2 = test: Syncytia assay, HUT78 cells infected with ROD-2 isolate co-cultured with H9 cells; assay type: cell-based; settings: 24 hours
Description: In order to assess the effects of Hy and Ps on the ability of HIV to form syncytia, the following experiments were performed. For the analysis of HIV-1, an entry syncytia assay was performed by co-culturing H9 cells (described in Popovic, M. et al. Science 224: 497-500, 1984) infected with the IIIb isolate of HIV with uninfected Supt-1 cells (Walker, B. D. et al. Proc. Nat. Acad. Sci. (USA) 84: 8120-8124, 1987) as the target cell. HIV-2 was tested using HUT78 cells (obtained from the National Institute of Health by reference to Depository Catalog, Reagent Program, Bethesda, Md.) infected with the ROD-2 isolate of HIV-2 co-cultured with uninfected H9 target cells. The infected cells were plated in 96 well plates (10^4 cells per well in RPM1 1640 medium with 10% fetal calf serum) and incubated with or without dilutions of Ps or Hy for 30 minutes at 37° C. 1×10^5 target cells were then added per well and the number of syncytia were quantitatively and qualitatively determined after 24 hours.

Cc1cc(O)c2c(=O)c3c(O)cc(O)c4c5c(O)cc(O)c6c(=O)c7c(O)cc(C)c8c1c2c(c34)c(c78)c65 [hypericin]
BUN ([1]; 2.5 μg hypericin): 18 mg/dL and 17 mg/dL | Hb ([1]; 2.5 μg hypericin): 12.7 gm, dl | Hematocrit ([1]; 2.5 μg hypericin): 38.3 and 37.8 | WBC ([1]; 2.5 μg hypericin): 4.6 /cumm and 4.8 /cumm | albumin ([1]; 2.5 μg hypericin): 3.4 g/dL and 2.6 g/dL | alk. phos. ([1]; 2.5 μg hypericin): 140 IU/l and 121 IU/l | calcium ([1]; 2.5 μg hypericin): 6.7 mg/dL and 5.4 mg/dL | chloride ([1]; 2.5 μg hypericin): 113 meq/l and 102 meq/l | cholesterol ([1]; 2.5 μg hypericin): 149 mg/dL and 143 mg/dL | creatinine ([1]; 2.5 μg hypericin): 0.4 mg/dL | globulins ([1]; 2.5 μg hypericin): 2.6 g/dL and 3.2 g/dL | glucose ([1]; 2.5 μg hypericin): 113 mg/dL and 68 mg/dL | iron ([1]; 2.5 μg hypericin): 219 mog/dl and 169 mog/dl | phosphorous ([1]; 2.5 μg hypericin): 8.1 mg/dL and 7.2 mg/dL | retics ([1]; 2.5 μg hypericin): 1.5% and 2.3% | sodium ([1]; 2.5 μg hypericin): 150 meq/l and 138 meq/l | total bilirubin ([1]; 2.5 μg hypericin): 0.8 mg/dL and 1.2 mg/dL | total protein ([1]; 2.5 μg hypericin): 6.0 g/dL and 5.8 g/dL | triglycerides ([1]; 2.5 μg hypericin): 80 mg/dL and 77 mg/dL | uric acid ([1]; 2.5 μg hypericin): 2.6 mg/dL and 2.8 mg/dL | BUN ([1]; 5.0 μg hypericin): 18 mg/dL | Hb ([1]; 5.0 μg hypericin): 12.9 gm, dl and 12.4 gm, dl | Hematocrit ([1]; 5.0 μg hypericin): 38.5 | WBC ([1]; 5.0 μg hypericin): 4.7 /cumm and 4.5 /cumm | albumin ([1]; 5.0 μg hypericin): 3.5 g/dL | alk. phos. ([1]; 5.0 μg hypericin): 140 IU/l | calcium ([1]; 5.0 μg hypericin): 7.0 mg/dL | chloride ([1]; 5.0 μg hypericin): 113 meq/l | cholesterol ([1]; 5.0 μg hypericin): 156 mg/dL | creatinine ([1]; 5.0 μg hypericin): 0.4 mg/dL | glucose ([1]; 5.0 μg hypericin): 112 mg/dL | iron ([1]; 5.0 μg hypericin): 220 mog/dl | phosphorous ([1]; 5.0 μg hypericin): 8.1 mg/dL | retics ([1]; 5.0 μg hypericin): 2.2% and 2.0% | sodium ([1]; 5.0 μg hypericin): 150 meq/l | total bilirubin ([1]; 5.0 μg hypericin): 0.8 mg/dL | triglycerides ([1]; 5.0 μg hypericin): 85 mg/dL | uric acid ([1]; 5.0 μg hypericin): 2.7 mg/dL | BUN ([1]; 10 μg hypericin): 18 mg/dL | Hb ([1]; 10 μg hypericin): 12.8 gm, dl and 12.3 gm, dl | Hematocrit ([1]; 10 μg hypericin): 37.8 | WBC ([1]; 10 μg hypericin): 4.5 /cumm | albumin ([1]; 10 μg hypericin): 3.5 g/dL | alk. phos. ([1]; 10 μg hypericin): 138 IU/l and 140 IU/l | calcium ([1]; 10 μg hypericin): 6.7 mg/dL | chloride ([1]; 10 μg hypericin): 112 meq/l | cholesterol ([1]; 10 μg hypericin): 155 mg/dL | creatinine ([1]; 10 μg hypericin): 0.3 mg/dL | globulins ([1]; 10 μg hypericin): 3.0 g/dL | glucose ([1]; 10 μg hypericin): 113 mg/dL | iron ([1]; 10 μg hypericin): 218 mog/dl and 220 mog/dl | phosphorous ([1]; 10 μg hypericin): 8.2 mg/dL and 8.1 mg/dL | retics ([1]; 10 μg hypericin): 1.7% and 0.5% | sodium ([1]; 10 μg hypericin): 148 meq/l | total bilirubin ([1]; 10 μg hypericin): 0.8 mg/dL and 0.9 mg/dL | total protein ([1]; 10 μg hypericin): 6.5 g/dL | triglycerides ([1]; 10 μg hypericin): 67 mg/dL and 64 mg/dL | uric acid ([1]; 10 μg hypericin): 2.9 mg/dL and 3.0 mg/dL | BUN ([1]; 25 μg hypericin): 18 mg/dL | Hb ([1]; 25 μg hypericin): 12.8 gm, dl | Hematocrit ([1]; 25 μg hypericin): 37.7 and 37.9 | WBC ([1]; 25 μg hypericin): 4.7 /cumm | albumin ([1]; 25 μg hypericin): 3.7 g/dL and 3.6 g/dL | alk. phos. ([1]; 25 μg hypericin): 136 IU/l and 134 IU/l | calcium ([1]; 25 μg hypericin): 6.7 mg/dL and 6.3 mg/dL | chloride ([1]; 25 μg hypericin): 111 meq/l and 110 meq/l | cholesterol ([1]; 25 μg hypericin): 166 mg/dL and 162 mg/dL | creatinine ([1]; 25 μg hypericin): 0.3 mg/dL | globulins ([1]; 25 μg hypericin): 3.1 g/dL and 3.3 g/dL | glucose ([1]; 25 μg hypericin): 111 mg/dL and 110 mg/dL | iron ([1]; 25 μg hypericin): 218 mog/dl and 219 mog/dl | phosphorous ([1]; 25 μg hypericin): 8.2 mg/dL and 8.1 mg/dL | retics ([1]; 25 μg hypericin): 0.8% and 0.3% | sodium ([1]; 25 μg hypericin): 146 meq/l and 144 meq/l | total bilirubin ([1]; 25 μg hypericin): 0.9 mg/dL | total protein ([1]; 25 μg hypericin): 6.8 g/dL and 6.9 g/dL | triglycerides ([1]; 25 μg hypericin): 80 mg/dL and 84 mg/dL | uric acid ([1]; 25 μg hypericin): 3.9 mg/dL and 3.8 mg/dL | BUN ([1]; 50 μg hypericin): 18 mg/dL | Hb ([1]; 50 μg hypericin): 12.8 gm, dl | Hematocrit ([1]; 50 μg hypericin): 38.1 and 38.0 | WBC ([1]; 50 μg hypericin): 4.8 /cumm | albumin ([1]; 50 μg hypericin): 3.5 g/dL | alk. phos. ([1]; 50 μg hypericin): 141 IU/l | calcium ([1]; 50 μg hypericin): 6.6 mg/dL and 6.8 mg/dL | chloride ([1]; 50 μg hypericin): 113 meq/l | cholesterol ([1]; 50 μg hypericin): 152 mg/dL and 150 mg/dL | creatinine ([1]; 50 μg hypericin): 0.4 mg/dL | globulins ([1]; 50 μg hypericin): 3.0 g/dL | glucose ([1]; 50 μg hypericin): 113 mg/dL and 114 mg/dL | iron ([1]; 50 μg hypericin): 220 mog/dl and 221 mog/dl | phosphorous ([1]; 50 μg hypericin): 8.3 mg/dL and 8.2 mg/dL | retics ([1]; 50 μg hypericin): 1.4% and 2.5% | sodium ([1]; 50 μg hypericin): 148 meq/l | total bilirubin ([1]; 50 μg hypericin): 0.8 mg/dL and 0.9 mg/dL | total protein ([1]; 50 μg hypericin): 6.5 g/dL | triglycerides ([1]; 50 μg hypericin): 61 mg/dL and 62 mg/dL | uric acid ([1]; 50 μg hypericin): 3.0 mg/dL and 2.8 mg/dL | BUN ([1]; 100 μg hypericin): 18 mg/dL and 17 mg/dL | Hb ([1]; 100 μg hypericin): 12.8 gm, dl and 13.2 gm, dl | Hematocrit ([1]; 100 μg hypericin): 37.8 and 38.4 | WBC ([1]; 100 μg hypericin): 4.9 /cumm and 5.0 /cumm | albumin ([1]; 100 μg hypericin): 3.5 g/dL and 3.4 g/dL | alk. phos. ([1]; 100 μg hypericin): 140 IU/l and 138 IU/l | calcium ([1]; 100 μg hypericin): 6.6 mg/dL | cholesterol ([1]; 100 μg hypericin): 153 mg/dL and 151 mg/dL | creatinine ([1]; 100 μg hypericin): 0.4 mg/dL | globulins ([1]; 100 μg hypericin): 3.0 g/dL and 2.7 g/dL | iron ([1]; 100 μg hypericin): 220 mog/dl and 216 mog/dl | phosphorous ([1]; 100 μg hypericin): 8.2 mg/dL and 8.0 mg/dL | retics ([1]; 100 μg hypericin): 0.8% and 0.7% | sodium ([1]; 100 μg hypericin): 149 meq/l and 146 meq/l | total bilirubin ([1]; 100 μg hypericin): 1.0 mg/dL | total protein ([1]; 100 μg hypericin): 6.5 g/dL and 6.1 g/dL | triglycerides ([1]; 100 μg hypericin): 92 mg/dL and 87 mg/dL | uric acid ([1]; 100 μg hypericin): 3.2 mg/dL and 3.1 mg/dL | BUN ([1]; 200 μg hypericin): 18 mg/dL | Hb ([1]; 200 μg hypericin): 12.6 gm, dl and 12.7 gm, dl | Hematocrit ([1]; 200 μg hypericin): 37.5 and 34.6 | WBC ([1]; 200 μg hypericin): 4.4 /cumm and 4.6 /cumm | albumin ([1]; 200 μg hypericin): 3.5 g/dL | alk. phos. ([1]; 200 μg hypericin): 139 IU/l and 140 IU/l | calcium ([1]; 200 μg hypericin): 6.6 mg/dL | chloride ([1]; 200 μg hypericin): 110 meq/l and 111 meq/l | cholesterol ([1]; 200 μg hypericin): 155 mg/dL and 157 mg/dL | creatinine ([1]; 200 μg hypericin): 0.4 mg/dL | globulins ([1]; 200 μg hypericin): 3.3 g/dL and 2.9 g/dL | glucose ([1]; 200 μg hypericin): 122 mg/dL and 111 mg/dL | iron ([1]; 200 μg hypericin): 211 mog/dl and 215 mog/dl | phosphorous ([1]; 200 μg hypericin): 7.9 mg/dL and 8.0 mg/dL | retics ([1]; 200 μg hypericin): 2.8% and 0.6% | sodium ([1]; 200 μg hypericin): 145 meq/l and 147 meq/l | total bilirubin ([1]; 200 μg hypericin): 1.1 mg/dL | total protein ([1]; 200 μg hypericin): 6.8 g/dL and 6.4 g/dL | triglycerides ([1]; 200 μg hypericin): 92 mg/dL and 89 mg/dL | uric acid ([1]; 200 μg hypericin): 3.8 mg/dL and 3.6 mg/dL | effect on clinical chemistries and hematological parameters (summary) ([1]; up to 200 micrograms/ml): did not significantly affect | syncytia score (number 0-4, size S/M/L) (HIV-2; 7 nanograms): 4 L | syncytia score (number 0-4, size S/M/L) (HIV-2; 14 nanograms): 4 L | syncytia score (number 0-4, size S/M/L) (HIV-2; 28 nanograms): 4 L | syncytia score (number 0-4, size S/M/L) (HIV-2; 56 nanograms): 3 M | syncytia score (number 0-4, size S/M/L) (HIV-2; 112 nanograms): 1S | syncytia score (number 0-4, size S/M/L) (HIV-2; 225 nanograms): 0 | syncytia score (number 0-4, size S/M/L) (HIV-2; 450 nanograms): 0 | syncytia score (number 0-4, size S/M/L) (HIV-2; 900 nanograms): 0 | syncytia score (number 0-4, size S/M/L) (HIV-2; 1800 nanograms): 0
